Patent US6914045B2, “Glycopeptide antibiotics” (Wyeth Holdings Corporation, priority 2001, dated 2005)
Values after ≈ are worked out from the molar mass of the structure shown.

Assays:
Assay in all cases: in vitro antibacterial evaluation, MIC by broth dilution
Type in all cases: cell-based
[1] = test system: Escherichia coli; settings: 18 hours at 35° C.
[2] = test system: Enterococcus sp.; settings: broth dilution, 18 hours at 35° C.
In short: (§1)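 Test organisms, which included recent clinical isolates resistant to methicillin, penicillin and/or vancomycin, were inoculated at 5×10^5 CFU/mL into Muller-Hinton II […] containing antibiotic at 64-0.06 μg/mL. Minimum inhibitory concentrations were then read as the lowest level inhibiting growth.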

[3] = test system: Staphylococcus sp.; settings: broth dilution, 18 hours at 35° C.
In short: as §1

[4] = test system: Streptococcus sp.; settings: broth dilution, 18 hours at 35° C.
In short: as §1

MIC Escherichia coli (ATCC 25922) [1]: >64 µg/mL
MIC Escherichia coli (GC 4559) [1]: 64 µg/mL (≈ 46 µM)
MIC Escherichia coli (GC 4560) [1]: 2 µg/mL (≈ 1.44 µM)
MIC Enterococcus avium (GC 4558) [2]: 32 µg/mL (≈ 23 µM)
MIC Enterococcus faecalis (ATCC 29212) [2]: 32 µg/mL (≈ 23 µM)
MIC Enterococcus faecalis (GC 2242) [2]: 32 µg/mL (≈ 23 µM)
MIC Enterococcus faecalis (GC 2691) [2]: 32 µg/mL (≈ 23 µM)
MIC Enterococcus faecalis (GC 3059) [2]: 64 µg/mL (≈ 46 µM)
MIC Enterococcus faecalis (GC 4552) [2]: 32 µg/mL (≈ 23 µM)
MIC Enterococcus faecalis (GC 4553) [2]: 32 µg/mL (≈ 23 µM)
MIC Enterococcus faecalis (GC 4554) [2]: 64 µg/mL (≈ 46 µM)
MIC Enterococcus faecalis (GC 6189) [2]: 32 µg/mL (≈ 23 µM)
MIC Enterococcus faecium (GC 2243) [2]: 32 µg/mL (≈ 23 µM)
MIC Enterococcus faecium (GC 4556) [2]: 32 µg/mL (≈ 23 µM)
MIC Enterococcus faecium (GC 4557) [2]: 4 µg/mL (≈ 2.87 µM)
MIC Enterococcus faecalis (ATCC 29212) ([2]; strain ATCC 29212): 32 µg/mL (≈ 23 µM)
MIC Enterococcus faecium (GC 2243) ([2]; strain GC 2243): 32 µg/mL (≈ 23 µM)
MIC Enterococcus faecalis (GC 4552) ([2]; strain GC 4552): 32 µg/mL (≈ 23 µM)
MIC Enterococcus faecalis (GC 4553) ([2]; strain GC 4553): 32 µg/mL (≈ 23 µM)
MIC Enterococcus faecalis (GC 4554) ([2]; strain GC 4554): 64 µg/mL (≈ 46 µM)
MIC Enterococcus faecium (GC 4556) ([2]; strain GC 4556): 32 µg/mL (≈ 23 µM)
MIC Enterococcus faecium (GC 4557) ([2]; strain GC 4557): 4 µg/mL (≈ 2.87 µM)
MIC Enterococcus avium (GC 4558) ([2]; strain GC 4558): 32 µg/mL (≈ 23 µM)
MIC Enterococcus faecalis (GC 6189) ([2]; strain GC 6189): 32 µg/mL (≈ 23 µM)
MIC Enterococcus faecalis (GC 2242) ([2]; inoculum 5×10^5 CFU/mL, strain GC 2242): 32 µg/mL (≈ 23 µM)
MIC Enterococcus faecalis (GC 2691) ([2]; inoculum 5×10^5 CFU/mL, strain GC 2691): 32 µg/mL (≈ 23 µM)
MIC Enterococcus faecalis (GC 3059) ([2]; inoculum 5×10^5 CFU/mL, strain GC 3059): 64 µg/mL (≈ 46 µM)
MIC Coagulase Negative Staphylococcus (GC 4547) [3]: 4 µg/mL (≈ 2.87 µM)
MIC Coagulase Negative Staphylococcus (GC 4548) [3]: 2 µg/mL (≈ 1.44 µM)
MIC Coagulase Negative Staphylococcus (GC 4549) [3]: 2 µg/mL (≈ 1.44 µM)
MIC Coagulase Negative Staphylococcus (GC 4551) [3]: 4 µg/mL (≈ 2.87 µM)
MIC Coagulase Negative Staphylococcus (GC 6257) [3]: 2 µg/mL (≈ 1.44 µM)
MIC Staphylococcus aureus (ATCC 29213) [3]: 8 µg/mL (≈ 5.75 µM)
MIC Staphylococcus aureus (GC 1131) [3]: 8 µg/mL (≈ 5.75 µM)
MIC Staphylococcus aureus (GC 3051) [3]: 8 µg/mL (≈ 5.75 µM)
MIC Staphylococcus aureus (GC 3053) [3]: 16 µg/mL (≈ 11.5 µM)
MIC Staphylococcus aureus (GC 4541) [3]: 8 µg/mL (≈ 5.75 µM)
MIC Staphylococcus aureus (GC 4542) [3]: 1 µg/mL (≈ 0.719 µM)
MIC Staphylococcus aureus (GC 4544) [3]: 8 µg/mL (≈ 5.75 µM)
MIC Staphylococcus aureus (GC 4545) [3]: 8 µg/mL (≈ 5.75 µM)
MIC Staphylococcus aureus-SMITH (GC 4543) [3]: 4 µg/mL (≈ 2.87 µM)
MIC Staphylococcus aureus (ATCC 29213) ([3]; strain ATCC 29213): 8 µg/mL (≈ 5.75 µM)
MIC Staphylococcus aureus (GC 1131) ([3]; strain GC 1131): 8 µg/mL (≈ 5.75 µM)
MIC Staphylococcus aureus (GC 3051) ([3]; strain GC 3051): 8 µg/mL (≈ 5.75 µM)
MIC Staphylococcus aureus (GC 3053) ([3]; strain GC 3053): 16 µg/mL (≈ 11.5 µM)
MIC Staphylococcus aureus (GC 4541) ([3]; strain GC 4541): 8 µg/mL (≈ 5.75 µM)
MIC Staphylococcus aureus (GC 4542) ([3]; strain GC 4542): 1 µg/mL (≈ 0.719 µM)
MIC Staphylococcus aureus-SMITH (GC 4543) ([3]; strain GC 4543): 4 µg/mL (≈ 2.87 µM)
MIC Staphylococcus aureus (GC 4544) ([3]; strain GC 4544): 8 µg/mL (≈ 5.75 µM)
MIC Staphylococcus aureus (GC 4545) ([3]; strain GC 4545): 8 µg/mL (≈ 5.75 µM)
MIC Coagulase Negative Staphylococcus (GC 4547) ([3]; strain GC 4547): 4 µg/mL (≈ 2.87 µM)
MIC Coagulase Negative Staphylococcus (GC 4548) ([3]; strain GC 4548): 2 µg/mL (≈ 1.44 µM)
MIC Coagulase Negative Staphylococcus (GC 4549) ([3]; strain GC 4549): 2 µg/mL (≈ 1.44 µM)
MIC Coagulase Negative Staphylococcus (GC 4551) ([3]; strain GC 4551): 4 µg/mL (≈ 2.87 µM)
MIC Coagulase Negative Staphylococcus (GC 6257) ([3]; strain GC 6257): 2 µg/mL (≈ 1.44 µM)
MIC Streptococcus agalactiae (GC 4564) [4]: 4 µg/mL (≈ 2.87 µM)
MIC Streptococcus pneumoniae (ATCC 6301) [4]: 1 µg/mL (≈ 0.719 µM)
MIC Streptococcus pneumoniae (GC 1894) [4]: 0.5 µg/mL (≈ 0.359 µM)
MIC Streptococcus pneumoniae (GC 4565) [4]: 1 µg/mL (≈ 0.719 µM)
MIC Streptococcus pyogenes (GC 4563) [4]: 2 µg/mL (≈ 1.44 µM)
MIC Streptococcus pneumoniae (ATCC 6301) ([4]; inoculum 5×10^5 CFU/mL, strain ATCC 6301): 1 µg/mL (≈ 0.719 µM)
MIC Streptococcus pneumoniae (GC 1894) ([4]; inoculum 5×10^5 CFU/mL, strain GC 1894): 0.5 µg/mL (≈ 0.359 µM)
MIC Streptococcus pyogenes (GC 4563) ([4]; inoculum 5×10^5 CFU/mL, strain GC 4563): 2 µg/mL (≈ 1.44 µM)
MIC Streptococcus agalactiae (GC 4564) ([4]; inoculum 5×10^5 CFU/mL, strain GC 4564): 4 µg/mL (≈ 2.87 µM)
MIC Streptococcus pneumoniae (GC 4565) ([4]; inoculum 5×10^5 CFU/mL, strain GC 4565): 1 µg/mL (≈ 0.719 µM)
Compound: CC(c1ccccc1)C1NC(=O)CNC(=O)C(CO)NC(=O)C(C(O)C2CNC(=N)N2C2OC(CO)C(O)C(O)C2O)NC(=O)C(C(O)C2CNC(=N)N2)NC(=O)C(Cc2ccc(OC3OC(CO)C(OC4OC(COCc5cccs5)C(O)C(O)C4O)C(O)C3O)cc2)NC1=O (stereo not shown) [Example 244]
MIC Staphylococcus haemolyticus (GC 4546) [3]: 4 µg/mL (≈ 2.87 µM)
MIC Staphylococcus haemolyticus (GC 4546) ([3]; strain GC 4546): 4 µg/mL (≈ 2.87 µM)
